Measured values as given in PubChem BioAssay AID1320 (NMMLSC, 2008).
Calls of active or inactive are those of the source. How the calls were made is not given here.

What follows are compounds tested against Bcl-2-related protein A1 (Homo sapiens) (UniProt Q16548) (assay: Bfl-1/Bim complex disruptors – biochemical, multiplexed, bead-based flow cytometry, dose response (AID 1320; further: test concentration not given here)). Details: Bim peptide-Bfl-1 binding, fluorescence.
Sequence of Bcl-2-related protein A1 (Homo sapiens) (Q16548 whole entry, looked up): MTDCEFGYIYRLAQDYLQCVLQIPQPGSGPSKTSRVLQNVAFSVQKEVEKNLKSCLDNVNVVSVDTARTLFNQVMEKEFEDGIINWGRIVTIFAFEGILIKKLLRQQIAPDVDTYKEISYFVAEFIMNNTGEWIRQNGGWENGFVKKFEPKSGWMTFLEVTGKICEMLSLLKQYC
With `Nc1ccc(N2CCCCCC2)cc1` the “percent span (inhibition)” value was “inactive”. `COc1cc(/C=C2\SC(=S)NC2=O)ccc1OS(=O)(=O)c1ccccc1` was tested, and the “percent span (inhibition)” value was “inactive”. In the case of `N/C(Cc1ccc(Cl)c(Cl)c1)=N\OC(=O)c1cccs1`, the “percent span (inhibition)” value is reported as “inactive”. In the case of `Cc1cc(OCc2cn3cccnc3n2)ccc1Cl`, the “percent span (inhibition)” value is reported as “inactive”. With `C/C(=N\NC(=O)Cc1cccn1C)c1ccc2ccccc2c1` the “percent span (inhibition)” value was “inactive”. For `O=C1NC(=S)S/C1=C/c1ccc(N2CCOCC2)o1`, the “percent span (inhibition)” value was “inactive”. With `CC(C)(C)OC(=O)N1CCN(C(=O)[C@H](Cc2ccc(O)cc2)n2cc(CCO)nn2)CC1` the “percent span (inhibition)” value was “inactive”. `Cc1cc(N2CCN(C)CC2)nc2ccc(NC(=S)N3CCC4(CC3)OCCO4)cc12` was tested, and the “percent span (inhibition)” value was “inactive”. In the case of `Cc1ccc(C)c(Oc2ncnc(N)c2[N+](=O)[O-])c1`, the “percent span (inhibition)” value is reported as “inactive”. `COc1ccc(OC)c2sc(NC(=O)c3ccc(Br)s3)nc12` was tested, and the “percent span (inhibition)” value was “inactive”. In the case of `CCOCCCn1c(N)c(C(=O)Nc2sc3c(c2C(=O)OC)CCCC3)c2nc3ccccc3nc21`, the “percent span (inhibition)” value is reported as “inactive”. In the case of `COc1ccc(-n2c(SCC(=O)Nc3ccc(C(=O)O)cc3)nnc2-c2cccs2)cc1`, the “percent span (inhibition)” value is reported as “inactive”. With `Cc1ccc(-n2c(CSc3nc(C)cc(C)n3)nnc2SCC(=O)NCc2ccco2)cc1` the “percent span (inhibition)” value was “inactive”. `Cc1noc(C)c1COc1ccc(C(=O)Nc2cccnc2)cc1` was tested, and the “percent span (inhibition)” value was “inactive”. `O=C(Nc1nnc(C2CC2)s1)C1Cc2ccccc2CN1S(=O)(=O)c1ccccc1F` (centres undefined) was tested, and the “percent span (inhibition)” value was “inactive”. With `Cc1cc(C)nc(/N=c2/ssnc2Cl)c1` the “percent span (inhibition)” value was “inactive”. For `COc1ccc(C(=S)N2CCCCCC2)cc1`, the “percent span (inhibition)” value was “inactive”. `COc1ccc(OCCNC(=O)c2ccccc2OCC(=O)N2CCCCC2)cc1` was tested, and the “percent span (inhibition)” value was “inactive”. `CC(C)=C1C(=O)NN(c2ccc(C)c(Cl)c2)C1=O` was tested, and the “percent span (inhibition)” value was “inactive”. `COc1ccc(N2CCN(C(=O)c3cc(=O)[nH]c4ccccc34)CC2)cc1` was tested, and the “percent span (inhibition)” value was “inactive”. In the case of `COc1ccc2nc(C)cc(SCC(=O)N/N=C/c3ccc(O)cc3O)c2c1`, the “percent span (inhibition)” value is reported as “inactive”. In the case of `CCNC(=S)Nc1ccc(OCC)cc1`, the “percent span (inhibition)” value is reported as “inactive”. `CCN1CCN(c2ccc(NC(=O)c3ccc4c(c3)[nH]c(=O)n4Cc3ccc(OC)cc3)cc2)CC1` was tested, and the “percent span (inhibition)” value was “inactive”. For `Cc1ccc(OCc2cn3cccnc3n2)cc1`, the “percent span (inhibition)” value was “inactive”. With `Cc1ccc(-c2nnc(Cc3ccc(Cl)cc3)o2)cc1` the “percent span (inhibition)” value was “inactive”. For `COc1ccccc1Oc1ccc2c(c1)C(=O)N(c1cccc3ncccc13)C2=O`, the “percent span (inhibition)” value was “inactive”. `Cc1ccc(-c2ccc(CCC(=O)O)n2NC(=O)c2cccs2)cc1` was tested, and the “percent span (inhibition)” value was “inactive”. `Cc1ccc(N=C2NC(=O)/C(=C/C=C/c3ccco3)S2)cc1` was tested, and the “percent span (inhibition)” value was “inactive”. In the case of `Cc1cc2nc(/C(C#N)=C/c3ccncc3)[nH]c2cc1C`, the “percent span (inhibition)” value is reported as “inactive”. With `O=[N+]([O-])c1ccc2[nH]nc(-c3ccccc3)c2c1` the “percent span (inhibition)” value was “inactive”. `Brc1ccc2ncnc(Nc3ccc(N4CCOCC4)cc3)c2c1` was tested, and the “percent span (inhibition)” value was “inactive”. With `CNC(=O)CC1C(=O)N(Cc2ccccc2)C(=S)N1NC(=O)c1cccc(F)c1` (centres undefined) the “percent span (inhibition)” value was “inactive”. `COCCNC(=S)Nc1cc(OC)c(OC)cc1C#N` was tested, and the “percent span (inhibition)” value was “inactive”. With `CS(=O)(=O)NN1C(=O)c2ccccc2NC1c1cccc2cccnc12` (centres undefined) the “percent span (inhibition)” value was “inactive”. In the case of `COCCN=c1scc(-c2ccco2)n1/N=C/c1ccc(O)c(O)c1O`, the “percent span (inhibition)” value is reported as “inactive”. `COc1ccc(NC(=O)c2cccs2)cc1` was tested, and the “percent span (inhibition)” value was “inactive”. In the case of `Cc1cc(C)c2nc3nc(C)cc(C)c3c(N)c2c1`, the “percent span (inhibition)” value is reported as “inactive”. With `CCN1CCN(c2cc(C)c3cc(NC(=S)N4CCN(c5ccc(F)cc5)CC4)ccc3n2)CC1` the “percent span (inhibition)” value was “inactive”. For `COc1cccc(/C=N/Nc2nn3cnnc3c3ccccc23)c1O`, the “percent span (inhibition)” value was “inactive”. With `COc1ccc(OC)c(NC(=O)CCCN2C(=S)NC(C)(C)CC2C)c1` (centres undefined) the “percent span (inhibition)” value was “inactive”. In the case of `Cc1noc(C)c1CN1C(=O)NC(Cc2ccccc2)(Cc2ccccc2)C1=O`, the “percent span (inhibition)” value is reported as “inactive”. In the case of `CCOC(=O)c1c2c3c(c(Cl)ccc3[nH]c1=O)C(=O)c1ccccc1-2`, the “percent span (inhibition)” value is reported as “inactive”. In the case of `Cc1ccc2c(c1)c(C)c(C)n2CC(O)Cn1nc(C)c(Br)c1C` (centres undefined), the “percent span (inhibition)” value is reported as “inactive”. In the case of `O=C1C(=O)c2ccc(-c3ccccc3)cc2-c2ccccc21`, the “percent span (inhibition)” value is reported as “inactive”. With `Cc1cccc(-c2nnc3n2N=C(c2ccccc2)CS3)c1` the “percent span (inhibition)” value was “inactive”. In the case of `C1=CC2c3ccccc3NC(c3ccncc3)C2C1` (centres undefined), the “percent span (inhibition)” value is reported as “inactive”. In the case of `CN(C)C(=O)N1CCC(C(=O)NC2CCCCCCC2)CC1`, the “percent span (inhibition)” value is reported as “inactive”. `CCn1c(C)nc2cc(C(=O)N/N=C/c3ccc(O)c(O)c3O)ccc21` was tested, and the “percent span (inhibition)” value was “inactive”. In the case of `CC(C)CNC(=O)c1cccc(NC(=O)c2ccc(Cl)c([N+](=O)[O-])c2)c1`, the “percent span (inhibition)” value is reported as “inactive”. With `Cn1c(=O)c2c(nc(NCCO)n2CCc2ccccc2)n(C)c1=O` the “percent span (inhibition)” value was “inactive”. With `CNc1nc2ccccc2n1/N=C/c1cccc(OC)c1OC` the “percent span (inhibition)” value was “inactive”. For `COc1ccc(S(=O)(=O)NCCSc2ccccc2)cc1OC`, the “percent span (inhibition)” value was “inactive”. `CCOC(=O)c1c(NC(=O)c2ccccc2N(C)S(=O)(=O)c2ccccc2)sc2c1CCCC2` was tested, and the “percent span (inhibition)” value was “inactive”. With `CC(C)Cc1cc(-c2ccco2)c(C#N)c(N)n1` the “percent span (inhibition)” value was “inactive”. For `O=C(Nc1cccc(Cl)c1)Nc1ccnc(-c2cccnc2)n1`, the “percent span (inhibition)” value was “inactive”. With `Cc1ccc(-c2cc(C(=O)OCC(=O)N(C)C3CCS(=O)(=O)C3)c3ccccc3n2)o1` (centres undefined) the “percent span (inhibition)” value was “inactive”. With `CN1C2C=C3C(C#N)=C(N)C(C#N)(C#N)[C@@H](c4ccsc4)[C@@H]3C1CC2` (some centres undefined) the “percent span (inhibition)” value was “inactive”. `Cc1ccccc1-n1c(SCc2cccc(F)c2)nc2[nH]ncc2c1=O` was tested, and the “percent span (inhibition)” value was “inactive”. For `CCc1cccc(CC)c1NC(=S)N1CCn2cccc2C1c1cccnc1` (centres undefined), the “percent span (inhibition)” value was “inactive”. `CCOC(=O)C1(Cc2cccc(OC)c2)CCN(Cc2cccc(OC)c2OC)CC1` was tested, and the “percent span (inhibition)” value was “inactive”. For `O=[N+]([O-])c1ccc(-c2cn(-c3ccc(Cl)cc3)c(=S)[nH]2)cc1`, the “percent span (inhibition)” value was “inactive”. For `COC(=O)Cc1ccc(NC(=S)N2CCN(c3cccc(O)c3)CC2)cc1`, the “percent span (inhibition)” value was “inactive”. For `CCCc1nnc2n1N=C(c1ccc(-c3cc(Cl)ccc3Cl)o1)CS2`, the “percent span (inhibition)” value was “inactive”. `Nc1cccc(-c2cn3cccnc3n2)c1` was tested, and the “percent span (inhibition)” value was “inactive”.
